Measured values: patent US20250257041A1, “INDUCERS OF INTEGRATED STRESS RESPONSE TO TREAT CANCER” (The Board of Regents of The University of Texas System, priority 2022, published 2025)
Like-named read-outs stand apart in the source and are kept apart here.

Experiments:
HCT116 WT = test: Proliferation of HCT116 colorectal cell line, Cell TiterGlo; assay type: cell-based, human
In short: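 HCT116 colorectal cells, wild type, GCN2 CRISPR knockout, or wild type plus ISRIB; proliferation read by CellTiter-Glo luminescence. 10-point dose response in triplicate, IC50 reported; multiple values are independent experiments.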

HCT116 GCN2KO = test: Proliferation of HCT116 cells with GCN2 knocked out (CRISPR), Cell TiterGlo; assay type: cell-based, human; conditions: Homo sapiens, HCT-116; HCT116 cells with GCN2 knocked out using CRISPR; read-out: HCT116 IC50 (uM) HCT116 − GCN2KO
Protocol: Briefly, compounds were tested for their effect on proliferation of HCT116 colorectal cell lines using Cell TiterGlo (Promega). Each compound was tested in a 10-point dose response experiment in triplicate. Multiple values in the column titled HCT116 WT reflect separate independent experiments. The three columns titled “HCT116 WT (repeat)”, “HCT116-CGN2KO” and “HCT116 WT+ISRIB” provide data for selected compounds that were tested simultaneously under three conditions. The HCT116 WT column lists IC50 against the wild type HCT116 colorectal cancer cell line. The HCT116-CGN2KO lists IC50 data for cells in which one component of the integrated stress response, GCN2, has been knocked out using CRISPR technology.

[1] = Homo sapiens, HCT-116, wild type HCT116, tested simultaneously with GCN2KO and +ISRIB, read-out: HCT116 IC50 (uM) HCT116 WT (repeat)
[2] = Homo sapiens, HCT-116, wild type HCT116, 10-point dose response in triplicate, multiple values = separate independent experiments, read-out: HCT116 IC50 (uM) HCT116 WT
[3] = wild type HCT116, compound plus 10 nM of ISRIB, read-out: HCT116 IC50 (uM) HCT116 WT + ISRIB

| Compound | IC50 (HCT116 WT; [1]) [µM] | HCT116 IC50 (uM) HCT116 WT (HCT116 WT; wild type HCT116, 10-point dose response in triplicate, multiple values = separate independent experiments) | IC50 (HCT116 GCN2KO) [µM] | IC50 (HCT116 WT; [2]) [µM] | IC50 (HCT116 WT; [3]) [µM] |
| --- | --- | --- | --- | --- | --- |
| Cn1nc(-c2ccc(NC(=O)c3ccc(C#N)cc3)cc2)cc1NC(=O)c1ccccc1 [SW393061, N-(4-(5-benzamido-1-methyl-1H-pyrazol-3-yl)phenyl)-4-cyanobenzamide] | ≥ 50 | inactive | ≥ 50 | – | – |
| Cn1nc(-c2ccc(NC(=O)c3cccc(Cl)c3)cc2)cc1NC(=O)c1ccccc1 [SW393062, N-(4-(5-benzamido-1-methyl-1H-pyrazol-3-yl)phenyl)-3-chlorobenzamide] | 2.37 | – | 10.5 | 2.1 | 8.72 |
| Cn1nc(-c2ccc(NC(=O)c3ccncc3)cc2)cc1NC(=O)c1ccccc1 [SW393063, N-(4-(5-benzamido-1-methyl-1H-pyrazol-3-yl)phenyl)isonicotinamide] | 2.04 | – | 3.69 | 3.2 | 3.1 |
| C#CCOc1cccc(C(=O)Nc2ccc(-c3cc(NC(=O)c4ccc(N=[N+]=[N-])cc4)n(C)n3)cc2)c1 [SW393065, N-(4-(5-(4-Azidobenzamido)-1-methyl-1H-pyrazol-3-yl)phenyl)-3-(prop-2-yn-1-yloxy)benza-mide] | 3.73 | – | 3.23 | 3 | 3.26 |
| COC(=O)c1cccc(C(=O)Nc2ccc(-c3cc(NC(=O)c4ccccc4)n(C)n3)cc2)c1 [SW393068, methyl 3-((4-(5-benzamido-1-methyl-1H-pyrazol-3-yl)phenyl)carbamoyl)benzoate] | 13.6 | – | 47 | 8.3 | – |
| Cn1nc(-c2ccc(NC(=O)c3cccc(C#N)c3)cc2)cc1NC(=O)c1ccccc1 [SW393069, N-(4-(5-benzamido-1-methyl-1H-pyrazol-3-yl)phenyl)-3-cyanobenzamide] | 7.43 | – | 15.2 | 17 | 12.7 |
| Cn1nc(-c2ccc(NS(=O)(=O)c3ccccc3)cc2)cc1NC(=O)c1ccccc1 [SW393070, N-(1-methyl-3-(4-(phenylsulfonamido)phenyl)-1H-pyrazol-5-yl)benzamide] | 9.06 | – | 22 | 16 | 23.3 |
| Cn1nc(-c2ccc(NC(=O)c3ccc(Cl)cc3)cc2)cc1NC(=O)c1ccccc1 [SW393072, N-(4-(5-benzamido-1-methyl-1H-pyrazol-3-yl)phenyl)-4-chlorobenzamide] | 2.83 | – | 11.1 | 3.3 | 13.8 |
| COC(=O)c1ccc(C(=O)Nc2ccc(-c3cc(NC(=O)c4ccccc4)n(C)n3)cc2)cc1 [SW393073, methyl 4-((4-(5-benzamido-1-methyl-1H-pyrazol-3-yl)phenyl)carbamoyl)benzoate] | 8 | – | ≥ 50 | 14 | – |
| Cn1nc(-c2ccc(NC(=O)c3ccccc3C(F)(F)F)cc2)cc1NC(=O)c1ccccc1 [SW393124, N-(4-(5-benzamido-1-methyl-1H-pyrazol-3-yl)phenyl)-2-(trifluoromethyl)benzamide] | 0.02 | – | 0.08 | 0.008 | 0.09 |
| C#CCOc1cccc(C(=O)Nc2cc(-c3ccc(NC(=O)c4ccccc4Cl)cc3)nn2C)c1 [SW393125, 2-Chloro-N-(4-(1-methyl-5-(3-(prop-2-yn-1-yloxy)benzamido)-1H-pyrazol-3-yl)phenyl)benz-amide] | 0.03 | – | 0.07 | 0.012 | 0.07 |
| Cn1nc(-c2ccc(NC(=O)c3ccccn3)cc2)cc1NC(=O)c1ccccc1 [SW393126, N-(4-(5-benzamido-1-methyl-1H-pyrazol-3-yl)phenyl)picolinamide] | 7.17 | – | 32.9 | 3.32 | 25.8 |
| Cn1nc(-c2ccc(NC(=O)c3cccnc3)cc2)cc1NC(=O)c1ccccc1 [SW393127, N-(4-(5-benzamido-1-methyl-1H-pyrazol-3-yl)phenyl)nicotinamide] | 1.46 | – | 6.64 | 0.5 | 7.5 |
| Cn1nc(-c2ccc(NC(=O)c3ccccc3)cc2)cc1NC(=O)c1cccnc1 [SW393128, N-(3-(4-benzamidophenyl)-1-methyl-1H-pyrazol-5-yl)nicotinamide] | 0.48 | – | 4.05 | 0.2 | 3.73 |
| Cn1nc(-c2ccc(NC(=O)c3ccccc3)cc2)cc1NC(=O)c1ccncc1 [SW393129, N-(3-(4-benzamidophenyl)-1-methyl-1H-pyrazol-5-yl)isonicotinamide] | 2.11 | – | 4.72 | 0.95 | 4.03 |
